How the values were obtained:
[1] = stress testing and accelerated stability studies; cited from earlier work
[2] = Bortezomib as such; cited from earlier work
[3] = system: Female New-Zealand White Rabbits; conditions: rabbit, in vivo
Method: Also Local tolerability/tissue reaction of Bortezomib 3.5 mg/0.2 mL compared with Velcade (Reference product) in Female New-Zealand White Rabbits.
The study was conducted to assess the local tolerance of Bortezomib in comparison with Velcade (Reference product) in New Zealand White Rabbits by single subcutaneous or intravenous route.

| Compound | stability in aqueous solution for injection [1] | water solubility [2] | External observation of the site of injection: signs of local intolerance [3] | Microscopic signs of local intolerance ([3]; iv) | animals with signs of local intolerance observed microscopically ([3]; sc) |
| --- | --- | --- | --- | --- | --- |
| CC(C)C[C@H](NC(=O)[C@H](Cc1ccccc1)NC(=O)c1cnccn1)B(O)O [Bortezomib, [(1R)-3-methyl-1-[[(2s)-3-phenyl-2-(pyrazine-2-carbonylamino)propanoyl]amino]butyl]boronic acid] | unstable | poor water solubility | – | – | – |
| Velcade | – | – | did not reveal any signs of local intolerance | no signs of local intolerance | 50 % of animals |

— patent US10314880B2, “Composition comprising bortezomib” (FTF Pharma Private Limited, priority 2015, dated 2019)
